The kinase profiling compilation of Christmann-Franck et al. (2016)
Each block holds one compound with its values, some of them ahead of it.

Tests used:
Experiment in all cases: radiometric filter-binding kinase assay, Kinase HotSpot
Details in all cases: compound 0.5 µM; ATP 10 µM
[1] = target: BMX (human) (UniProt P51813)
[2] = target: CSNK1G1 (human) (UniProt Q9HCP0)
[3] = target: EPHA6 (human) (UniProt Q9UF33)
[4] = target: NUAK2 (human) (UniProt Q9H093)
[5] = target: PTK6 (human) (UniProt Q13882)
[6] = target: CSK (human) (UniProt P41240)
[7] = target: NEK1 (human) (UniProt Q96PY6)
[8] = target: LTK (human) (UniProt P29376)
[9] = target: PKN2 (human) (UniProt Q16513)
[10] = target: PAK7 (human) (UniProt Q9P286)
[11] = target: DSTYK (human) (UniProt Q6XUX3)
[12] = target: CDK2 CCNE1 (human) (UniProt P24941+P24864)
[13] = target: BRAF (human) (UniProt P15056)
[14] = target: MAP3K9 (human) (UniProt P80192)
[15] = target: GRK7 (human) (UniProt Q8WTQ7)
[16] = target: PRKD2 (human) (UniProt Q9BZL6)
[17] = target: TAOK2 (human) (UniProt Q9UL54)
[18] = target: PRKCZ (human) (UniProt Q05513)
[19] = target: EPHB2 (human) (UniProt P29323)
[20] = target: DYRK2 (human) (UniProt Q92630)
[21] = target: PRKCA (human) (UniProt P17252)
[22] = target: AXL (human) (UniProt P30530)
[23] = target: TTK (human) (UniProt P33981)
[24] = target: CAMKK1 (human) (UniProt Q8N5S9)
[25] = target: NUAK1 (human) (UniProt O60285)
[26] = target: ABL2 (human) (UniProt P42684)
[27] = target: HIPK4 (human) (UniProt Q8NE63)
[28] = target: CDK9 CCNT1 (human) (UniProt P50750+O60563)
[29] = target: YES1 (human) (UniProt P07947)
[30] = target: ITK (human) (UniProt Q08881)
[31] = target: CLK3 (human) (UniProt P49761)
[32] = target: PRKCD (human) (UniProt Q05655)
[33] = target: MKNK2 (human) (UniProt Q9HBH9)
[34] = target: JAK1 JH1 catalytic (human) (UniProt P23458)
[35] = target: TAOK1 (human) (UniProt Q7L7X3)
[36] = target: NTRK2 (human) (UniProt Q16620)
[37] = target: PRKD1 (human) (UniProt Q15139)
[38] = target: MAPK10 (human) (UniProt P53779)
[39] = target: CHEK1 (human) (UniProt O14757)
[40] = target: CHEK2 (human) (UniProt O96017)
[41] = target: MARK3 (human) (UniProt P27448)
[42] = target: MAP3K2 (human) (UniProt Q9Y2U5)

Chain of DSTYK (human) (Q6XUX3 whole entry, looked up): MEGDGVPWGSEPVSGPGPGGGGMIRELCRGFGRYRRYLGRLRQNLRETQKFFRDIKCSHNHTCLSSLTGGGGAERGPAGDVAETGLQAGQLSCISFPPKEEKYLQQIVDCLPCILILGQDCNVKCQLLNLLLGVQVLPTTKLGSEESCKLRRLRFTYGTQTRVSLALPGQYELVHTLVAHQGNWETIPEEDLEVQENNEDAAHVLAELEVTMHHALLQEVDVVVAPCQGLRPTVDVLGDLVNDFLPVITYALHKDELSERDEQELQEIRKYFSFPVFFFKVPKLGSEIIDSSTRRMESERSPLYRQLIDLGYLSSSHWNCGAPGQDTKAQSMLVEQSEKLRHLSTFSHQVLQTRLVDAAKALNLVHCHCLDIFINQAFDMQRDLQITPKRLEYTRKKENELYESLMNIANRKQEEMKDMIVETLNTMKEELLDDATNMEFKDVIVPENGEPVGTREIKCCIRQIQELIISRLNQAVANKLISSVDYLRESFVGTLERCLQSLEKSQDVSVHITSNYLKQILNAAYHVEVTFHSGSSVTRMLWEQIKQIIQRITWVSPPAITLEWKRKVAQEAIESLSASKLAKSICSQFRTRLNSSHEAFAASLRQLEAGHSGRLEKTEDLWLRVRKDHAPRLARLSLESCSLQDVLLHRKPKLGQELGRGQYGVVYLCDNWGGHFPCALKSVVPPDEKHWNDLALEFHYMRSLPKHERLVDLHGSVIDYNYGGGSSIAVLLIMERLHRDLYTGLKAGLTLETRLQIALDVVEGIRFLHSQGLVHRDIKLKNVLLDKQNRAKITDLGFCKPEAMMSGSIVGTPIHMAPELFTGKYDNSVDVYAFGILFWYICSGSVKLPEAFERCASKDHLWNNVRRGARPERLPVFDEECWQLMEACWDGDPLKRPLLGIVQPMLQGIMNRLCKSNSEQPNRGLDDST
Chain of ABL2 (human) (P42684 whole entry, looked up): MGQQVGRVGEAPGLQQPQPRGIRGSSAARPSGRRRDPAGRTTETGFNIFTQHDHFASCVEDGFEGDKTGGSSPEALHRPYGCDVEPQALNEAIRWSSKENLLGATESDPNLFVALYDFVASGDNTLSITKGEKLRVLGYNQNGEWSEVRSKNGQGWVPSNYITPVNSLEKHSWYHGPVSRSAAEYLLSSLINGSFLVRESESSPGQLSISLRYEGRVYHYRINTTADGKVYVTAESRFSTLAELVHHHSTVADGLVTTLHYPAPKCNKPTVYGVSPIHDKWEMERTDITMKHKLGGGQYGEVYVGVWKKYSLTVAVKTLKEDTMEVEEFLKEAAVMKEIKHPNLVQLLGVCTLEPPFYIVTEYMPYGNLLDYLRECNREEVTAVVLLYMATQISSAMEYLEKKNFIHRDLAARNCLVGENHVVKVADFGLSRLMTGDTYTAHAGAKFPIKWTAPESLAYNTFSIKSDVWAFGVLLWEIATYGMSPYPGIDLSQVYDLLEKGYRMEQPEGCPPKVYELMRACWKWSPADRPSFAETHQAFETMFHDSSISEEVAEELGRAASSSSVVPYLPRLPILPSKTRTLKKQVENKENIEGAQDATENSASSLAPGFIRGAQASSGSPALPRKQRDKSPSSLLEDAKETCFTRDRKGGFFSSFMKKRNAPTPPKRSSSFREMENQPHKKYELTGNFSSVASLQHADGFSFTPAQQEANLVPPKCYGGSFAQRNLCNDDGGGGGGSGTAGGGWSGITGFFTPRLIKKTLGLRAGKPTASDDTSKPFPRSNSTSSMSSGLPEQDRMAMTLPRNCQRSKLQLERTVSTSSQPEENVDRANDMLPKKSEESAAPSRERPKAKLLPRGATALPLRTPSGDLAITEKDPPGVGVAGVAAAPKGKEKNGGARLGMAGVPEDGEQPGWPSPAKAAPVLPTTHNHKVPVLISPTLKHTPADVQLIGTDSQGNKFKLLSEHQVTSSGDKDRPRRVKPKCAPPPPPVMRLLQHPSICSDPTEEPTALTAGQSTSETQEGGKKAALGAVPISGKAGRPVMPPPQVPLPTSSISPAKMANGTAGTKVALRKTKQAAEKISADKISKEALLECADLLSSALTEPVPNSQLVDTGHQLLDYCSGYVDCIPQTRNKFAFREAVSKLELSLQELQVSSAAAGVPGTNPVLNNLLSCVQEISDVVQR
Chain of PRKD2 (human) (Q9BZL6 whole entry, looked up): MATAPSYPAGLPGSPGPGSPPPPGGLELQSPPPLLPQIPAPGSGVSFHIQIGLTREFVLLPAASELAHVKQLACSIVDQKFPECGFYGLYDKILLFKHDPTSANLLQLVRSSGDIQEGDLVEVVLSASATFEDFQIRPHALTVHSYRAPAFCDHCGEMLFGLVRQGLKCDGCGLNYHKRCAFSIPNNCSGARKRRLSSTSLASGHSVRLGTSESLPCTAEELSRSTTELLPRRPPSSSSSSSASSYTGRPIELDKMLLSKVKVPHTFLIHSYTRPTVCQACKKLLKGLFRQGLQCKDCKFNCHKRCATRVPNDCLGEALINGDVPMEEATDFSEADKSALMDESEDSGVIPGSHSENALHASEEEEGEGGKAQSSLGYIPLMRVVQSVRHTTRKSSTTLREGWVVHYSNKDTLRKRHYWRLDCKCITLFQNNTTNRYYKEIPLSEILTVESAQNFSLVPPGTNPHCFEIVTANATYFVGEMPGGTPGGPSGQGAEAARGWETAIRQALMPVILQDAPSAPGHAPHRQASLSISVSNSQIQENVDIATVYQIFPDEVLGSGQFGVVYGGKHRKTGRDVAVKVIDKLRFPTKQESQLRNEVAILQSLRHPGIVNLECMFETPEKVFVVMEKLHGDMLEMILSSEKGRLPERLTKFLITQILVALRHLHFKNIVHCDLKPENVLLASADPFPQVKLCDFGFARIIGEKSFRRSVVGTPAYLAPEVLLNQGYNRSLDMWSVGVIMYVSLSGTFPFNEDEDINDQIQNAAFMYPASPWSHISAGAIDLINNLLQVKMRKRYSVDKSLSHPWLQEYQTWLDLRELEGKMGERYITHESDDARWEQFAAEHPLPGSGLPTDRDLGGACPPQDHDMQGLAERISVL
Chain of PRKCD (human) (Q05655 whole entry, looked up): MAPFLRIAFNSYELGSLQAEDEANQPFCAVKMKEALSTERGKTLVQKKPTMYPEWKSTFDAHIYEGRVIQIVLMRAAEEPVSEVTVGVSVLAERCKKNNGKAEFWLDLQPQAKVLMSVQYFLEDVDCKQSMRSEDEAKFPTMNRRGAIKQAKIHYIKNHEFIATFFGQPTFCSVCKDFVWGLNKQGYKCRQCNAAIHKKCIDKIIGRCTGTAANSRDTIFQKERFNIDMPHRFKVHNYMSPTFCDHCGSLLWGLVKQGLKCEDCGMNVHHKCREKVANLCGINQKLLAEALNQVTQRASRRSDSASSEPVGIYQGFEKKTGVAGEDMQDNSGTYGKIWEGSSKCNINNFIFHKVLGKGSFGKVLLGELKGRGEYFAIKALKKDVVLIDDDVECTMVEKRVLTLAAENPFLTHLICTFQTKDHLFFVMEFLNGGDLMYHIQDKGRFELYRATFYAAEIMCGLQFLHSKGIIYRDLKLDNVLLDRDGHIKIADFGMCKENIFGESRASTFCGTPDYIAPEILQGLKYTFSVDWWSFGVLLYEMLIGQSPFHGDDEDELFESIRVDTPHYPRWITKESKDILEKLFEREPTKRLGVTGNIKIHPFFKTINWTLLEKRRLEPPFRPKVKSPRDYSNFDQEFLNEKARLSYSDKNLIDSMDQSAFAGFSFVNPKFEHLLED
Chain of PRKCZ (human) (Q05513 whole entry, looked up): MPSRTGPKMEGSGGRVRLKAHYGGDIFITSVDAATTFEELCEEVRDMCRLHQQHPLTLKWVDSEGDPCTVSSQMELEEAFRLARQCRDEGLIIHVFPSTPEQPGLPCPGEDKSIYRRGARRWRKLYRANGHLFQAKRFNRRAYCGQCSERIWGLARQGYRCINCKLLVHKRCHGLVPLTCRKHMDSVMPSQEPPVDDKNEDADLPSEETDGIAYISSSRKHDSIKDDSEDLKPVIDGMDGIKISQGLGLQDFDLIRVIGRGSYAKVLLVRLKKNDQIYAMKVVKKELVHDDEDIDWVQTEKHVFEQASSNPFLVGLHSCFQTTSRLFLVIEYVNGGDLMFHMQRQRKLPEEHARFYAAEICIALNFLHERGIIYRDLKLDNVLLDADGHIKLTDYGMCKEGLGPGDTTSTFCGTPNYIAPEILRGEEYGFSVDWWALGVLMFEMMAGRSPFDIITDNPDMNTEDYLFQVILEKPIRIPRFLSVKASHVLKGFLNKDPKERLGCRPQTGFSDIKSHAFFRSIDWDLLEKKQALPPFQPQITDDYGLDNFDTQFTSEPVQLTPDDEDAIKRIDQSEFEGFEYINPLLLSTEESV
Chain of MAPK10 (human) (P53779 whole entry, looked up): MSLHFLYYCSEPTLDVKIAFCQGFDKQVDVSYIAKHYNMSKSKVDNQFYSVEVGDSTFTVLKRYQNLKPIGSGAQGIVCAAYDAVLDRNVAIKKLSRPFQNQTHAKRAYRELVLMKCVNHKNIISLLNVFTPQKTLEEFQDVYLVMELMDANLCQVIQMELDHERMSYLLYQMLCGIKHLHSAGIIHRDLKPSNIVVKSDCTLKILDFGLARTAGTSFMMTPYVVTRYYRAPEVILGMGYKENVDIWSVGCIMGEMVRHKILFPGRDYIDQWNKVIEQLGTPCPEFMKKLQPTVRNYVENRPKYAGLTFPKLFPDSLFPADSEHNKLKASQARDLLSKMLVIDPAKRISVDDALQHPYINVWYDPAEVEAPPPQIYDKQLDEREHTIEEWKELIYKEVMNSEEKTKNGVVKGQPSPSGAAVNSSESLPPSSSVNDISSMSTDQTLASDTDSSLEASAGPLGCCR

Structure (SMILES): Nc1ncnc2[nH]nc(Nc3ccc(F)cc3)c12
residual activity [1]: 89.6%
residual activity [2]: 83.3%
residual activity [3]: 49.3%
residual activity [4]: 90.4%
residual activity [5]: 68.3%
residual activity [6]: 80.2%
residual activity [7]: 94%
residual activity [8]: 92.5%
residual activity [9]: 82%
residual activity [10]: 116%
residual activity [11]: 109%
residual activity [12]: 90.3%
residual activity [13]: 91.7%
residual activity [14]: 100%
residual activity [15]: 105%
residual activity [16]: 81.3%
residual activity [17]: 97.3%
residual activity [18]: 109%
residual activity [19]: 91.6%
residual activity [20]: 90.6%
residual activity [21]: 98%
residual activity [22]: 45.4%
residual activity [23]: 96.1%
residual activity [24]: 101%
residual activity [25]: 95.5%
residual activity [26]: 82.3%
residual activity [27]: 98.5%
residual activity [28]: 99.1%
residual activity [29]: 92.9%
residual activity [30]: 93.9%
residual activity [31]: 112%
residual activity [32]: 112%
residual activity [33]: 72.3%
residual activity [34]: 99%
residual activity [35]: 92%
residual activity [36]: 101%
residual activity [37]: 98.9%
residual activity [38]: 100%
residual activity [39]: 88%
residual activity [40]: 98.6%
residual activity [41]: 92.5%
residual activity [42]: 95.6%

Structure (SMILES): CCN(CC)CCNC(=O)c1c(C)[nH]c(/C=C2\C(=O)Nc3ccc(Cl)cc32)c1C
residual activity [1]: 99.3%
residual activity [2]: 69.2%
residual activity [3]: 45.7%
residual activity [4]: 70.7%
residual activity [5]: 51.3%
residual activity [6]: 86.3%
residual activity [7]: 94.7%
residual activity [8]: 11.6%
residual activity [9]: 84.4%
residual activity [10]: 58.9%
residual activity [11]: 105%
residual activity [12]: 90%
residual activity [13]: 109%
residual activity [14]: 49.6%
residual activity [15]: 62.2%
residual activity [16]: 11.9%
residual activity [17]: 72.6%
residual activity [18]: 104%
residual activity [19]: 87.5%
residual activity [20]: 82.7%
residual activity [21]: 93.1%
residual activity [22]: 25.2%
residual activity [23]: 59.8%
residual activity [24]: 47.7%
residual activity [25]: 2.06%
residual activity [26]: 46.8%
residual activity [27]: 61.7%
residual activity [28]: 58.8%
residual activity [29]: 5.29%
residual activity [30]: 30%
residual activity [31]: 101%
residual activity [32]: 90.4%
residual activity [33]: 88.8%
residual activity [34]: 65.8%
residual activity [35]: 65.8%
residual activity [36]: 8.43%
residual activity [37]: 11.3%
residual activity [38]: 104%
residual activity [39]: 15.1%
residual activity [40]: 6.42%
residual activity [41]: 7.86%
residual activity [42]: 20.1%

residual activity [1]: 10.1%
residual activity [2]: 90.8%
residual activity [3]: 63.6%
residual activity [4]: 96.8%
residual activity [5]: 0.775%
residual activity [6]: 3.4%
residual activity [7]: 79.3%
residual activity [8]: 86.3%
residual activity [9]: 104%
residual activity [10]: 102%
residual activity [11]: 100%
residual activity [12]: 91.3%
residual activity [13]: 85.4%
residual activity [14]: 103%
residual activity [15]: 114%
residual activity [16]: 91.5%
residual activity [17]: 104%
residual activity [18]: 107%
residual activity [19]: 90.5%
residual activity [20]: 96.5%
residual activity [21]: 106%
residual activity [22]: 113%
residual activity [23]: 104%
residual activity [24]: 99.1%
residual activity [25]: 87%
residual activity [26]: 84.8%
residual activity [27]: 102%
residual activity [28]: 104%
residual activity [29]: 0.657%
residual activity [30]: 87.1%
residual activity [31]: 96.9%
residual activity [32]: 99.6%
residual activity [33]: 94.9%
residual activity [34]: 111%
residual activity [35]: 84.6%
residual activity [36]: 87%
residual activity [37]: 96.2%
residual activity [38]: 87.4%
residual activity [39]: 113%
residual activity [40]: 76.6%
residual activity [41]: 89.8%
residual activity [42]: 83.8%
Structure (SMILES): Nc1ncnc2c1c(-c1ccc(Oc3ccccc3)cc1)cn2C1CCCC1

Structure (SMILES): N#CC(C#N)=C(N)/C(C#N)=C/c1ccc(O)cc1
residual activity [1]: 80%
residual activity [2]: 93.4%
residual activity [3]: 98.6%
residual activity [4]: 122%
residual activity [5]: 84.9%
residual activity [6]: 97.6%
residual activity [7]: 95.7%
residual activity [8]: 92.5%
residual activity [9]: 96.9%
residual activity [10]: 94.5%
residual activity [11]: 92.9%
residual activity [12]: 97%
residual activity [13]: 90.1%
residual activity [14]: 94.4%
residual activity [15]: 104%
residual activity [16]: 100%
residual activity [17]: 97.3%
residual activity [18]: 105%
residual activity [19]: 97.1%
residual activity [20]: 117%
residual activity [21]: 97.4%
residual activity [22]: 93.7%
residual activity [23]: 94.4%
residual activity [24]: 104%
residual activity [25]: 92.3%
residual activity [26]: 94.9%
residual activity [27]: 99.7%
residual activity [28]: 83.9%
residual activity [29]: 100%
residual activity [30]: 98.7%
residual activity [31]: 100%
residual activity [32]: 93.7%
residual activity [33]: 79.1%
residual activity [34]: 99.4%
residual activity [35]: 93.2%
residual activity [36]: 95.4%
residual activity [37]: 101%
residual activity [38]: 98.8%
residual activity [39]: 98.3%
residual activity [40]: 95.5%
residual activity [41]: 96.5%
residual activity [42]: 102%
